Data on four compounds can be found in US7612035B2, “Inhibition of mitogen-activated protein kinase (MAPK) pathway: a selective therapeutic strategy against melanoma” (Van Andel Research Institute, priority 2000, dated 2009).

Test [1] has as its system UACC-62. The conditions noted are these: mouse, in vivo, ip, 90 mg/kg/day; cited from earlier work.
Test [2] has as its system SK-MEL-2. The conditions noted are these: mouse, in vivo, ip, 90 mg/kg/day; cited from earlier work.
For test [3], the system named is SK-MEL-5. The conditions noted are these: mouse, in vivo, ip, 40 mg/kg/day; cited from earlier work.
For the next test, the system named is melanoma xenografts. The conditions noted are these: mouse, in vivo, ip; cited from earlier work.
Test [4] has as its system MALME-3M. The conditions noted are these: mouse, in vivo, ip, 90 mg/kg/day; cited from earlier work.
Test [5] relates to UACC-257. The conditions noted are these: mouse, in vivo, ip, 90 mg/kg/day; cited from earlier work.
The test system of the next test is M14. The conditions noted are these: mouse, in vivo, ip, 90 mg/kg/day; cited from earlier work.
Test [6] has as its system LOX-IMVI. The conditions noted are these: mouse, in vivo, ip, cited from earlier work.
The subject of another test is M14-MEL. It is filed as cell-based, human. The conditions noted are these: for % Apoptosis: M14-MEL Melanoma Cells, treatment for 72 hours; for Apoptosis (%) Experiment I: M14-MEL, 72 h, average of four replicates minus background (PA alone or DMSO), LF 0.1 μg/ml with PA, PD98059 20 μM every 24 h, U0126 10 μM single dose.
The test system of test [7] is SK-MEL-5. It is filed as cell-based, human. The conditions noted are these: 72 h, average of four replicates minus background (PA alone or DMSO), LF 0.1 μg/ml with PA, PD98059 20 μM every 24 h, U0126 10 μM single dose.
For test [8], the system named is normal human melanocytes (NHEM). Briefly: Cell cycle profile by flow cytometry. Type of test: cell-based. The conditions noted are these: 72 hours with PD98059 (and U0126) or 96 hours with LF. The method, then:
(§1) Cell cycle profiles and DNA content were analyzed by flow cytometry, as previously described (Koo, H.-M. et al. Canc Res 59:6057-6062 (1999)). Total cells including floating cells were harvested, washed in cold PBS and fixed in cold 70% ethanol overnight. The fixed cells were rehydrated in PBS containing 1% fetal bovine serum, washed in PBS, incubated with DNase-free RNase at room temperature for 30 min, and then stained with 50 μg/ml propidium iodide overnight at 4° C. in the dark. The stained samples were analyzed in a FACSCalibur (Becton Dickinson Biosciences) for DNA content and cell cycle profiles.
A general note: Flow cytometry measures light scatter and fluorescence of single cells or particles in a stream.

For test [9], the system named is SK-MEL-2. It is filed as cell-based, human. The conditions noted are these: 72 h, average of four replicates minus background (PA alone or DMSO), LF 0.1 μg/ml with PA, PD98059 20 μM every 24 h, U0126 10 μM single dose.
The subject of a further test is SK-MEL-28. It is filed as cell-based, human. The conditions noted are these: 72 h, average of four replicates minus background (PA alone or DMSO), LF 0.1 μg/ml with PA, PD98059 20 μM every 24 h, U0126 10 μM single dose.
The next test deals with MDA-MB-435 and MDA-N. Briefly: NCI-ADS growth inhibition, breast carcinoma lines. It is filed as cell-based, human. The conditions noted are these: NCI-ADS breast carcinoma lines MDA-MB-435 and MDA-N.
Test [10] deals with UACC-257. It is filed as cell-based, human. The conditions noted are these: 72 h, average of four replicates minus background (PA alone or DMSO), LF 0.1 μg/ml with PA, PD98059 20 μM every 24 h, U0126 10 μM single dose.
Another test has as its system MAPK (ERK). Briefly: Active phospho-MAPK immunoblot in normal melanocytes. It is filed as cell-based, human. The conditions noted are these: 72 hours with PD98059 (and U0126) or 96 hours with LF. The method, then:
(§2) Western blot analysis was performed as described previously (Koo et al., 1999, supra). The primary antibodies used were anti-active MAPK from Promega, and anti-ERK1 (K-23) and anti-ERK2 (C-14) from Santa Cruz Biotechnology.

Test [11] relates to normal human melanocytes (NHEM). It is filed as cell-based. The conditions noted are these: for % Apoptosis: Normal Melanocytes, treatment for 72 hours; for apoptosis (in words): normal melanocytes.
A further test relates to ERK1 and 2. Briefly: Active phospho-MAPK immunoblot in MALME-3M cells. It is filed as cell-based, human. The method, then:
as §2
(In general: In western blotting, separated proteins are transferred to a membrane and probed.)

In test [12] the test system is MALME-3M. It is filed as cell-based, human. The conditions noted are these: 72 h, average of four replicates minus background (PA alone or DMSO), LF 0.1 μg/ml with PA, PD98059 20 μM every 24 h, U0126 10 μM single dose.
For test [13], the system named is MALME-3M. Briefly: Cell cycle profile by flow cytometry. Type of test: cell-based, human. The conditions noted are these: within 24 hours of treatment. On the procedure:
as §1
In most cell types, activation of the MAPK pathway is required for progression through the restriction point in G1 phase of the cell cycle (reviewed in Roussel et al., supra).

Test [14] concerns UACC-62. Type of test: cell-based, human. The conditions noted are these: 72 h, average of four replicates minus background (PA alone or DMSO), LF 0.1 μg/ml with PA, PD98059 20 μM every 24 h, U0126 10 μM single dose.
Test [15] concerns LOX-IMVI. It is filed as cell-based, human. The conditions noted are these: 72 h, average of four replicates minus background (PA alone or DMSO), LF 0.1 μg/ml with PA, PD98059 20 μM every 24 h, U0126 10 μM single dose.
The test system of another test is MAPK (ERK1/2). Briefly: Western blot with phospho-specific anti-ERK antibody in M14-MEL cells. It is filed as cell-based, human. The conditions noted are these: M14-MEL melanoma cells. On the procedure:
as §2

[16] abbreviates: 72 hours with PD98059 (and U0126) or 96 hours with LF.

SMILES strings stand for the structures. Entries after “also recorded” stand apart in the source; their conditions may differ. Read-outs that look alike come from different tables or passages of the source. Marks after values point to notes of the source that are not given here.

For the compound `COc1cccc2c1[C@H](CO)N1[C@@H](C#N)[C@@H]3C[C@@H](C(=O)O)[C@H]([C@@H]1C2)N3C` [DX-52-1], the “Growth delay: %(T − C)/C” value was 185% with UACC-62 [1]; 118% with SK-MEL-2 [2]; 27% in the test with SK-MEL-5 [3]; 4% in the test on MALME-3M [4]; 35% in the test with UACC-257 [5]; 56% in the test with M14. Also, the “Growth delay: %(T − C)/C” value with LOX-IMVI [6] (60 mg/kg/day) is recorded as 389%; in the test on LOX-IMVI [6] (90 mg/kg/day), 181%. The “Optimal % T/C” value in the test with UACC-62 [1] was 18 (34) %; in the test on SK-MEL-2 [2], 10 (32) %; in the test on SK-MEL-5 [3], 49 (33) %; with MALME-3M [4] it was 64 (72) %; in the test with UACC-257 [5], 12 (27) %; in the test with M14, 19 (26) %. Further, the entries for the “Optimal % T/C” value in the test on LOX-IMVI [6] (60 mg/kg/day) and in the test on LOX-IMVI [6] (90 mg/kg/day) were −100^b % and −54%, respectively. Further, the “Regressions Complete” value is 0/7 in the test with UACC-62 [1]; 2/6 in the test on SK-MEL-2 [2]; 0/6 with SK-MEL-5 [3]; 0/6 in the test with MALME-3M [4]; 0/6 in the test with UACC-257 [5]; 0/6 in the test on M14. Moreover, the “Regressions Complete” value is 4/6 in the test on LOX-IMVI [6] (60 mg/kg/day) and 2/10 with LOX-IMVI [6] (90 mg/kg/day). Moreover, the “Regressions Partial” value in the test on UACC-62 [1] is reported as 0/7; in the test with SK-MEL-2 [2], 0/6; in the test on SK-MEL-5 [3], 0/6; with MALME-3M [4], 0/6; in the test with UACC-257 [5] it was 0/6; with M14, 0/6. In addition, the “Regressions Partial” value is on record as 016 in the test with LOX-IMVI [6] (60 mg/kg/day) and 3/10 with LOX-IMVI [6] (90 mg/kg/day). Further, the “day on which the optimal (minimum) T/C was attained” value in the test on UACC-62 [1] is 18 (34); with SK-MEL-2 [2] it was 10 (32); with SK-MEL-5 [3], 49 (33); in the test on MALME-3M [4], 64 (72); in the test on UACC-257 [5] it was 12 (27); with M14, 19 (26). In the test on melanoma xenografts, the “melanoma xenografts with statistically significant antitumor activity” value is given as 5/7.

Consider `COc1cccc(-c2cc(=O)c3ccccc3o2)c1N` [PD98059], for which the “% Apoptosis” value in the test on M14-MEL (20 μM) stood at 38.9%; in test [11] (20 μM), 0%. The “Apoptosis (%) Experiment I” value in the test with M14-MEL turned out to be 53.0%; in the test with SK-MEL-5 [7], 9.1%; with SK-MEL-2 [9] it was 23.4%; with SK-MEL-28 it was 2.5%; with UACC-257 [10], 19.7%; with MALME-3M [12], 47.9%. The “Apoptosis (%) Experiment I” value with UACC-62 [14] is reported as 30.5%; with LOX-IMVI [15] it was 3.6%. Besides, the cell cycle response entry in test [8] is recorded as “induced G1 arrest”. Moreover, in the test on MDA-MB-435 and MDA-N, the “sensitivity to growth inhibition” value is given as “as sensitive as melanoma cell lines”. In the test on MAPK (ERK), the “MAPK (ERK) activation” value is reported as “inhibited”. The figures for the “apoptosis (in words)” value in [11] (setting [16]) and in test [11] (PD98059 for 96 hours) were “no apoptosis was observed” and “apoptosis was not detected”, respectively. Moreover, in the test on ERK1 and 2, the “activation of ERK1 and 2” value is reported as “inhibited”. The cell cycle progression result in the test on MALME-3M [13] was “noticeably blocked in the G1 phase”.

As to `O=C(NOCC1CC1)c1ccc(F)c(F)c1Nc1ccc(I)cc1Cl` [PD184352], the “% Apoptosis” value in the test with M14-MEL (1 μM) amounted to 24.5%; in the test on M14-MEL (5 μM), 37.3%; in the test on M14-MEL (10 μM), 48.8%; with M14-MEL (20 μM) it was 71.0%; in test [11] (2 μM), 0.3%. For the same compound, the “potency relative to PD98059” value in the test with M14-MEL (apoptosis in M14-MEL, 72 hours) is listed as “more potent, possibly by several fold”. Further, in the test on M14-MEL (apoptosis, 72 hours), the “selectivity melanoma cells vs normal human melanocytes” value is on record as “selectively cytotoxic to human melanoma cells”. Besides, the “activation of MAPK (ERK1/2)” value with MAPK (ERK1/2) is recorded as “completely blocked”.

Take `N#CC(=C(/N)Sc1ccccc1N)/C(C#N)=C(\N)Sc1ccccc1N` [U0126]: the “Apoptosis (%) Experiment I” value in the test on M14-MEL amounted to 36.0%; in the test with SK-MEL-5 [7], 1.9%; with SK-MEL-2 [9], 35.4%; with SK-MEL-28, 1.1%; with UACC-257 [10] it was 4.7%; with MALME-3M [12] it was 48.3%. Further, the “Apoptosis (%) Experiment I” value in the test on UACC-62 [14] is reported as 8.3%; with LOX-IMVI [15], 2.3%. Moreover, the cell cycle response entry in test [8] is given as “induced G1 arrest”. Further, the “MAPK (ERK) activation” value in the test with MAPK (ERK) is on record as “inhibited”. For the same compound, the “apoptosis (in words)” value in test [11] (setting [16]) is “no apoptosis was observed; also recorded: did not induce apoptosis”.
